Experimental data from patent US20240246951A1, “COMPOUND HAVING BIOLOGICAL ACTIVITY SUCH AS ANTIVIRAL ACTIVITY” (NATIONAL CENTER FOR GLOBAL HEALTH AND MEDICINE, priority 2021, published 2024).
Read-outs that look alike come from different tables or passages of the source.

Legend:
[1] = target: Mpro/3CL protease of SARS-CoV-2 (Severe acute respiratory syndrome coronavirus 2 (2019-nCoV) (SARS-CoV-2), UniProt P0DTD1); assay: Mpro/3CL protease enzyme inhibitory activity, FRET assay kit; format: biochemical; details: fluorogenic substrate, 25° C.
[2] = Cytotoxicity test, MTT assay; format: cell-based; details: African green monkey, Vero E6 cells
Procedure: (§1) The cytotoxicity test of the test compounds was conducted using Vero E6 cells. Specifically, Vero E6 cells were inoculated in a 96 well plate to be 1×10^4 cells/well, and cultured under standard culture conditions of 3 days, 37° C., and 5% CO2 together with media supplemented with each test compound of each concentration after serial dilution. Thereafter, the viable cell count of each well was quantified by MTT assay to calculate 50% cytotoxicity concentration (CC50).

SARS-CoV-2WK-521 = assay: microbe, parasite or virus in culture; format: cell-based; details: for times more excellent EC50 value as compared with PF-7321332: ratio of EC50 values; for times more excellent EC99 value as compared with PF-7321332: ratio of EC99 values
in vivo = details: mouse, 2 mg/kg; for half-life: iv; for bioavailability: po, bioavailability (BA)
Vero E6 cells = assay: Cytotoxicity test, MTT assay; format: cell-based; details: 3 days
Procedure: as §1

[3] = Severe acute respiratory syndrome coronavirus 2, Vero C1008, 72 h, Vero E6 cells, MOI 0.05, 3 days, read-out: EC50
[4] = Vero E6 cells, MOI 0.05, 3 days
[5] = Severe acute respiratory syndrome coronavirus 2, Vero C1008, 72 h, read-out: EC50

| Compound | CC50 at 3 days [2] [nM] | EC99 (SARS-CoV-2WK-521) [µM] | CC50 (Vero E6 cells) [nM] | EC50 (SARS-CoV-2WK-521; read-out: EC50) [nM] | also measured |
| --- | --- | --- | --- | --- | --- |
| CC1(C)[C@@H]2[C@@H](C(=O)N[C@@H](C[C@@H]3CCNC3=O)C(=O)c3nc4c(F)cccc4s3)N(C(=O)c3cc4c(F)ccc(F)c4[nH]3)C[C@@H]21 [Compound 243, (1R,2S,5S)-3-(4,7-difluoro-1H-indole-2-carbonyl)-N-((S)-1-(4-fluorobenzo[d]thiazol-2-yl)-1-oxo-3-((S)-2-oxopyrrolidin-3-yl)propan-2-yl)-6,6-dimethyl-3-azabicyclo[3.1.0]hexane-2-carboxamide] | > 100000 |  |  |  | IC50 [1]: 800 nM; EC50 (SARS-CoV-2WK-521; [3]): 750 nM; EC99 (SARS-CoV-2WK-521; [4]): 9.4 µM |
| COc1ccc(F)c2[nH]c(C(=O)N3C[C@H]4[C@@H]([C@H]3C(=O)N[C@@H](C[C@@H]3CCNC3=O)C(=O)c3nc5c(F)cccc5s3)C4(C)C)cc12 [Compound 244, (1R,2S,5S)-3-(7-fluoro-4-methoxy-1H-indole-2-carbonyl)-N-((S)-1-(4-fluorobenzo[d]thiazol-2-yl)-1-oxo-3-((S)-2-oxopyrrolidin-3-yl)propan-2-yl)-6,6-dimethyl-3-azabicyclo[3.1.0]hexane-2-carboxamide] | > 100000 |  |  |  | IC50 [1]: 600 nM; EC50 (SARS-CoV-2WK-521; [3]): 600 nM; EC99 (SARS-CoV-2WK-521; [4]): 0.99 µM |
| CC(C)(C)[C@H](NC(=O)C(F)(F)F)C(=O)N1C[C@H]2[C@@H]([C@H]1C(=O)N[C@@H](C[C@@H]1CCNC1=O)C(=O)c1nc3c(F)cccc3s1)C2(C)C [Compound 245, (1R,2S,5S)-3-((S)-3,3-dimethyl-2-(2,2,2-trifluoroacetamido)butanoyl)-N-((S)-1-(4-fluorobenzo[d]thiazol-2-yl)-1-oxo-3-((S)-2-oxopyrrolidin-3-yl)propan-2-yl)-6,6-dimethyl-3-azabicyclo[3.1.0]hexane-2-carboxamide] | > 100000 | 0.95 |  |  | half-life (in vivo): ≥ 45 min; bioavailability (in vivo): ≥ 31%; bioavailability (in vivo; same experiment conducted again, mice, 2 mg/kg P.O. vs I.V., calculated from AUC of FIG. 2): 47.7%; EC75 (SARS-CoV-2WK-521): 290 nM; EC50 (SARS-CoV-2WK-521; [5]): 80 nM; suppression of proliferation of SARS-CoV-2 (SARS-CoV-2WK-521; concentration of 1 μM): almost completely suppressed; times more excellent EC50 value as compared with PF-7321332 (SARS-CoV-2WK-521): ≥ 20 times; times more excellent EC99 value as compared with PF-7321332 (SARS-CoV-2WK-521): about 10 times |
| CC(C)(C)[C@H](NC(=O)C(F)(F)F)C(=O)N1C[C@H]2[C@@H](C1C(=S)N[C@@H](C[C@@H]1CCNC1=O)C(=O)c1nc3c(F)cccc3s1)C2(C)C (stereo partly drawn) [Compound 245s, 2,2,2-trifluoro-N-((S)-1-((1R,2S,5S)-2-(((S)-1-(4-fluorobenzo[d]thiazol-2-yl)-1-oxo-3-((S)-2-oxopyrrolidin-3-yl)propan-2-yl)carbamothioyl)-6,6-dimethyl-3-azabicyclo[3.1 0.0]hexan-3-yl)-3,3-dimethyl-1-oxobutan-2-yl)acetamide] |  |  |  |  | EC75 (SARS-CoV-2WK-521; [4]): 550 nM; EC99 (SARS-CoV-2WK-521; [4]): 0.98 µM; times more excellent EC99 value as compared with PF-7321332 (SARS-CoV-2WK-521): about 10 times |
| CC(C)(C)[C@H](NC(=O)C(F)(F)F)C(=O)N1C[C@H]2[C@@H]([C@H]1C(=S)N[C@@H](C[C@@H]1CCNC1=O)C(=O)c1nc3c(F)cccc3s1)C2(C)C [Compound 245s, 2,2,2-trifluoro-N-((S)-1-((1R,2S,5S)-2-(((S)-1-(4-fluorobenzo[d]thiazol-2-yl)-1-oxo-3-((S)-2-oxopyrrolidin-3-yl)propan-2-yl)carbamothioyl)-6,6-dimethyl-3-azabicyclo[3.1 0.0]hexan-3-yl)-3,3-dimethyl-1-oxobutan-2-yl)acetamide] | > 100000 |  |  |  | IC50 [1]: 300 nM; EC50 (SARS-CoV-2WK-521; [3]): 310 nM; times more excellent EC50 value as compared with PF-7321332 (SARS-CoV-2WK-521): ≥ 6 times |
| CC(C)(C)[C@H](NC(=O)C(F)(F)F)C(=O)N1C[C@H]2[C@@H]([C@H]1C(=O)N[C@@H](C[C@@H]1CCNC1=O)C(=O)c1nc3c(F)ccc(F)c3s1)C2(C)C [Compound 247] |  | <1.0 | > 100000 | < 200 |  |
| CC(C)(C)[C@H](NC(=O)C(F)(F)F)C(=O)N1C[C@H]2[C@@H]([C@H]1C(=S)N[C@@H](C[C@@H]1CCNC1=O)C(=O)c1nc3c(F)ccc(F)c3s1)C2(C)C [Compound 247s] |  | <1.0 | > 100000 | < 300 |  |
| CC1(C)[C@@H]2[C@@H](C(=O)N[C@@H](C[C@@H]3CCNC3=O)C(=O)c3nc4c(F)cccc4s3)N(C(=O)[C@H](CC(F)(F)F)NC(=O)C(F)(F)F)C[C@@H]21 [Compound 248] |  | <1.0 | > 100000 | < 200 |  |
| CC1(C)[C@@H]2[C@@H](C(=S)N[C@@H](C[C@@H]3CCNC3=O)C(=O)c3nc4c(F)cccc4s3)N(C(=O)[C@H](CC(F)(F)F)NC(=O)C(F)(F)F)C[C@@H]21 [Compound 248s] |  | <1.0 | > 100000 | < 300 |  |
| CC1(C)[C@@H]2[C@@H](C(=O)N[C@@H](C[C@@H]3CCNC3=O)C(=O)c3nc4c(F)cccc4s3)N(C(=O)[C@H](CCC(F)(F)F)NC(=O)C(F)(F)F)C[C@@H]21 [Compound 249] |  | <1.0 | > 100000 | < 200 |  |
| CC1(C)[C@@H]2[C@@H](C(=S)N[C@@H](C[C@@H]3CCNC3=O)C(=O)c3nc4c(F)cccc4s3)N(C(=O)[C@H](CCC(F)(F)F)NC(=O)C(F)(F)F)C[C@@H]21 [Compound 249s] |  | <1.0 | > 100000 | < 300 |  |
| CC(C)(F)[C@H](NC(=O)C(F)(F)F)C(=O)N1C[C@H]2[C@@H]([C@H]1C(=O)N[C@@H](C[C@@H]1CCNC1=O)C(=O)c1nc3c(F)cccc3s1)C2(C)C [Compound 250] |  | <1.0 | > 100000 | < 200 |  |
| CC(C)(F)[C@H](NC(=O)C(F)(F)F)C(=O)N1C[C@H]2[C@@H]([C@H]1C(=S)N[C@@H](C[C@@H]1CCNC1=O)C(=O)c1nc3c(F)cccc3s1)C2(C)C [Compound 250s] |  | <1.0 | > 100000 | < 300 |  |
| CC(C)(F)[C@H](NC(=O)C(F)(F)F)C(=O)N1C[C@H]2[C@@H]([C@H]1C(=O)N[C@@H](C[C@@H]1CCNC1=O)C(=O)c1nc3c(F)ccc(F)c3s1)C2(C)C [Compound 251] |  | <1.0 | > 100000 | < 200 |  |
| CC(C)(F)[C@H](NC(=O)C(F)(F)F)C(=O)N1C[C@H]2[C@@H]([C@H]1C(=S)N[C@@H](C[C@@H]1CCNC1=O)C(=O)c1nc3c(F)ccc(F)c3s1)C2(C)C [Compound 251s] |  | <1.0 | > 100000 | < 300 |  |
| CC(C)(C)[C@H](NC(=O)C(F)(F)F)C(=O)N1C[C@H]2[C@@H]([C@H]1C(=O)N[C@@H](C[C@@H]1CCNC1=O)C(=O)c1nc3cc(F)ccc3s1)C2(C)C [Compound 272, (1R,2S,5S)-3-((S)-3,3-dimethyl-2-(2,2,2-trifluoroacetamido)butanoyl)-N-((S)-1-(5-fluorobenzo[d]thiazol-2-yl)-1-oxo-3-((S)-2-oxopyrrolidin-3-yl)propan-2-yl)-6,6-dimethyl-3-azabicyclo[3.1.0]hexane-2-carboxamide] | > 80000 |  |  |  | bioavailability (in vivo): 99.3%; EC50 (SARS-CoV-2WK-521; [5]): 8 nM |
| CC(C)(C)[C@H](NC(=O)C(F)(F)F)C(=O)N1C[C@H]2[C@@H]([C@H]1C(=O)N[C@@H](C[C@@H]1CCNC1=O)C(=O)c1nc3ccc(F)cc3s1)C2(C)C [Compound 273, (1R,2S,5S)-3-((S)-3,3-dimethyl-2-(2,2,2-trifluoroacetamido)butanoyl)-N-((S)-1-(6-fluorobenzo[d]thiazol-2-yl)-1-oxo-3-((S)-2-oxopyrrolidin-3-yl)propan-2-yl)-6,6-dimethyl-3-azabicyclo[3.1.0]hexane-2-carboxamide] | > 80000 |  |  |  | EC50 (SARS-CoV-2WK-521; [5]): 52 nM |
| COc1cccc2[nH]c(C(=O)N[C@@H](CC(C)C)C(=O)N[C@@H](C[C@@H]3CCNC3=O)C(=O)c3nc4ccccc4s3)cc12 [Compound 2420, reference compound] |  |  |  |  | half-life (in vivo): ~10 min; EC50 (SARS-CoV-2WK-521; Severe acute respiratory syndrome coronavirus 2, Vero C1008, 72 h): 2700 to 3200 nM |
| CC(C)(C)[C@H](NC(=O)C(F)(F)F)C(=O)N1C[C@H]2[C@@H]([C@H]1C(=O)N[C@H](C#N)C[C@@H]1CCNC1=O)C2(C)C [PF-7321332, reference compound] | > 100000 |  |  |  | EC50 (SARS-CoV-2WK-521; [3]): 1900 nM; EC75 (SARS-CoV-2WK-521; [4]): 4390 nM; EC99 (SARS-CoV-2WK-521; [4]): 9.68 µM |
